Laboratory results taken from US20160022684A1, “BET INHIBITOR AND BRUTON'S TYROSINE KINASE INHIBITOR COMBINATIONS” (Pharmacyclics LLC, priority 2014, published 2016).

How the values were obtained:
Format in all cases: cell-based
OCI-LY3 = experiment: Combined drug treatment cell viability (CellTiter-Glo), ibrutinib with BET inhibitors, OCI-LY3; conditions: OCI-LY-3, JQ1 1 uM, 3 days
Procedure: (§1) The DLBCL cell lines used during the experiments included TMD8, OCI-LY3, OCI-LY10, U-2932 and SU-DHL-2. DLBCL cells at either 1×10^4 cells or 2×10^4 cells were plated onto each well of a 96-W plate (Table 1). […] The 96-W plate was then incubated for 3 days. Cell viability was examined using a CellTiter-Glo assay. A 40 μL of CellTiter-Glo reagent was added directly into each well of the 96-W plate. The plate was then shaken on a Shaker ([…]) at speed 5 for 10-20 min at room temperature. Next, about 100 μL of the mixed medium was transferred to a white, non-transparent, flat bottom 96-W plate for assaying. […] Measurements were taken at room temperature. CellTiter-Glow reagents were thawed prior to use. Cells pre-plated onto a second 96-W plate and incubated at room temperature for 30 minutes were used for calibration purposes. […] CI is a quantitative description of the interaction property of the combination of two drugs.

OCI-LY10 = experiment: Combined drug treatment cell viability (CellTiter-Glo), ibrutinib with BET inhibitors, OCI-LY10; conditions: OCI-LY-10, JQ1 1 uM, 3 days
Procedure: as §1

TMD8 = experiment: Combined drug treatment cell viability (CellTiter-Glo), ibrutinib with BET inhibitors, TMD8; conditions: JQ1 20 nM, 3 days
Procedure: as §1

U-2932 = experiment: Combined drug treatment cell viability (CellTiter-Glo), ibrutinib with BET inhibitors, U-2932; conditions: U2932, JQ1 20 nM, 3 days
Procedure: as §1

SU-DHL-2 = experiment: Combined drug treatment cell viability (CellTiter-Glo), ibrutinib with BET inhibitors, SU-DHL-2; conditions: JQ1 100 nM, 3 days
Procedure: as §1

[1] = ibrutinib 0 nM (BET inhibitor alone): I-BET151 5 uM, OTX015 1 uM
[2] = ibrutinib 0.0256 nM with I-BET151 5 uM, OTX015 1 uM or medium alone (row)
[3] = ibrutinib 0.64 nM with I-BET151 5 uM, OTX015 1 uM or medium alone (row)
[4] = ibrutinib 3.2 nM with I-BET151 5 uM, OTX015 1 uM or medium alone (row)
[5] = ibrutinib 16 nM with I-BET151 5 uM, OTX015 1 uM or medium alone (row)
[6] = ibrutinib 80 nM with I-BET151 5 uM, OTX015 1 uM or medium alone (row)
[7] = ibrutinib 400 nM with I-BET151 5 uM, OTX015 1 uM or medium alone (row)
[8] = ibrutinib 2000 nM with I-BET151 5 uM, OTX015 1 uM or medium alone (row)
[9] = ibrutinib 10000 nM with I-BET151 5 uM, OTX015 1 uM or medium alone (row)
[10] = ibrutinib […] with I-BET151 5 uM, OTX015 1 uM or medium alone (row)
[11] = ibrutinib 0 nM (BET inhibitor alone): I-BET151 200 nM, OTX015 100 nM
[12] = ibrutinib 0.0256 nM with I-BET151 200 nM, OTX015 100 nM or medium alone (row)
[13] = ibrutinib 0.64 nM with I-BET151 200 nM, OTX015 100 nM or medium alone (row)
[14] = ibrutinib 3.2 nM with I-BET151 200 nM, OTX015 100 nM or medium alone (row)
[15] = ibrutinib 16 nM with I-BET151 200 nM, OTX015 100 nM or medium alone (row)
[16] = ibrutinib 80 nM with I-BET151 200 nM, OTX015 100 nM or medium alone (row)
[17] = ibrutinib 400 nM with I-BET151 200 nM, OTX015 100 nM or medium alone (row)
[18] = ibrutinib 2000 nM with I-BET151 200 nM, OTX015 100 nM or medium alone (row)
[19] = ibrutinib 10000 nM with I-BET151 200 nM, OTX015 100 nM or medium alone (row)
[20] = ibrutinib […] with I-BET151 200 nM, OTX015 100 nM or medium alone (row)
[21] = ibrutinib 0 nM (BET inhibitor alone): I-BET151 200 nM, OTX015 50 nM (Table 2)
[22] = ibrutinib 0.0256 nM with I-BET151 200 nM, OTX015 50 nM (Table 2) or medium alone (row)
[23] = ibrutinib 0.64 nM with I-BET151 200 nM, OTX015 50 nM (Table 2) or medium alone (row)
[24] = ibrutinib 3.2 nM with I-BET151 200 nM, OTX015 50 nM (Table 2) or medium alone (row)
[25] = ibrutinib 16 nM with I-BET151 200 nM, OTX015 50 nM (Table 2) or medium alone (row)
[26] = ibrutinib 80 nM with I-BET151 200 nM, OTX015 50 nM (Table 2) or medium alone (row)
[27] = ibrutinib 400 nM with I-BET151 200 nM, OTX015 50 nM (Table 2) or medium alone (row)
[28] = ibrutinib 2000 nM with I-BET151 200 nM, OTX015 50 nM (Table 2) or medium alone (row)
[29] = ibrutinib 10000 nM with I-BET151 200 nM, OTX015 50 nM (Table 2) or medium alone (row)
[30] = ibrutinib […] with I-BET151 200 nM, OTX015 50 nM (Table 2) or medium alone (row)
[31] = ibrutinib 0 nM (BET inhibitor alone): I-BET151 2 uM, OTX015 1 uM (Table 2)
[32] = ibrutinib 0.0256 nM with I-BET151 2 uM, OTX015 1 uM (Table 2) or medium alone (row)
[33] = ibrutinib 10000 nM with I-BET151 2 uM, OTX015 1 uM (Table 2) or medium alone (row)
[34] = ibrutinib […] with I-BET151 2 uM, OTX015 1 uM (Table 2) or medium alone (row)

In the case of `COc1cc2c(cc1-c1c(C)noc1C)ncc1[nH]c(=O)n([C@H](C)c3ccccn3)c12` [I-BET151], the luminescent signals (OCI-LY3; [1]) is reported as 14156.55, the luminescent signals (OCI-LY3; [2]) is reported as 15418.7 and the luminescent signals (OCI-LY3; [3]) is reported as 15156.3. For the same molecule, the luminescent signals (OCI-LY3; [4]) was 13849.54, the luminescent signals (OCI-LY3; [5]) was 14914.89 and the luminescent signals (OCI-LY3; [6]) was 13899.4. The luminescent signals (OCI-LY3; [7]) was 15392.46, the luminescent signals (OCI-LY3; [8]) was 13151.56 and the luminescent signals (OCI-LY3; [9]) was 14424.2. The luminescent signals (OCI-LY3; [10]) was 12962.63, the luminescent signals (OCI-LY10; [1]) was 43633.29 and the luminescent signals (OCI-LY10; [2]) was 41108.85. It also gave a luminescent signals (OCI-LY10; [3]) of 38594.93, a luminescent signals (OCI-LY10; [4]) of 31834.18 and a luminescent signals (OCI-LY10; [5]) of 23382.58. The luminescent signals (OCI-LY10; [6]) was 21683.85, the luminescent signals (OCI-LY10; [7]) was 21781.14 and the luminescent signals (OCI-LY10; [8]) was 22475.36. The luminescent signals (OCI-LY10; [9]) was 21920.51, the luminescent signals (OCI-LY10; [10]) was 38721.15 and the luminescent signals (TMD8; [11]) was 53526.63. For the same molecule, the luminescent signals (TMD8; [12]) was 14177.65, the luminescent signals (TMD8; [13]) was 12722.72 and the luminescent signals (TMD8; [14]) was 11655.25. The luminescent signals (TMD8; [15]) was 11328.42, the luminescent signals (TMD8; [16]) was 11526.1 and the luminescent signals (TMD8; [17]) was 11191.36. For the same molecule, the luminescent signals (TMD8; [18]) was 11183.45, the luminescent signals (TMD8; [19]) was 6995.257 and the luminescent signals (TMD8; [20]) was 13950.98. The luminescent signals (U-2932; [21]) was 50367.82, the luminescent signals (U-2932; [22]) was 45116.29 and the luminescent signals (U-2932; [23]) was 42565.61. It also gave a luminescent signals (U-2932; [24]) of 43472.05, a luminescent signals (U-2932; [25]) of 43980.61 and a luminescent signals (U-2932; [26]) of 43659.14. The luminescent signals (U-2932; [27]) was 44468.08, the luminescent signals (U-2932; [28]) was 42568.25 and the luminescent signals (U-2932; [29]) was 32015.12. For the same molecule, the luminescent signals (U-2932; [30]) was 44167.69, the luminescent signals (SU-DHL-2; [31]) was 793.343 and the luminescent signals (SU-DHL-2; [32]) was 714.534. The luminescent signals (SU-DHL-2; ibrutinib 0.64 nM with I-BET151 2 uM, OTX015 1 uM (Table 2) or medium alone (row)) was 704.027, the luminescent signals (SU-DHL-2; ibrutinib 3.2 nM with I-BET151 2 uM, OTX015 1 uM (Table 2) or medium alone (row)) was 809.105 and the luminescent signals (SU-DHL-2; ibrutinib 16 nM with I-BET151 2 uM, OTX015 1 uM (Table 2) or medium alone (row)) was 843.256. For the same molecule, the luminescent signals (SU-DHL-2; ibrutinib 80 nM with I-BET151 2 uM, OTX015 1 uM (Table 2) or medium alone (row)) was 922.065, the luminescent signals (SU-DHL-2; ibrutinib 400 nM with I-BET151 2 uM, OTX015 1 uM (Table 2) or medium alone (row)) was 798.597 and the luminescent signals (SU-DHL-2; ibrutinib 2000 nM with I-BET151 2 uM, OTX015 1 uM (Table 2) or medium alone (row)) was 717.161. It also gave a luminescent signals (SU-DHL-2; [33]) of 585.813 and a luminescent signals (SU-DHL-2; [34]) of 835.375.
Work on `Cc1sc2c(c1C)C(c1ccc(Cl)cc1)=N[C@@H](CC(=O)Nc1ccc(O)cc1)c1nnc(C)n1-2` [OTX015] yielded a luminescent signals (OCI-LY3; [1]) of 12422.08, a luminescent signals (OCI-LY3; [2]) of 14387.47 and a luminescent signals (OCI-LY3; [3]) of 13925.64. For the same molecule, the luminescent signals (OCI-LY3; [4]) was 14043.72, the luminescent signals (OCI-LY3; [5]) was 13776.07 and the luminescent signals (OCI-LY3; [6]) was 14290.38. For the same molecule, the luminescent signals (OCI-LY3; [7]) was 15615.51, the luminescent signals (OCI-LY3; [8]) was 15793.94 and the luminescent signals (OCI-LY3; [9]) was 14418.95. The luminescent signals (OCI-LY3; [10]) was 12918.02, the luminescent signals (OCI-LY10; [1]) was 45142.68 and the luminescent signals (OCI-LY10; [2]) was 42481.51. It also gave a luminescent signals (OCI-LY10; [3]) of 40790.66, a luminescent signals (OCI-LY10; [4]) of 33872.14 and a luminescent signals (OCI-LY10; [5]) of 29764.67. It also gave a luminescent signals (OCI-LY10; [6]) of 25880.72, a luminescent signals (OCI-LY10; [7]) of 25433.68 and a luminescent signals (OCI-LY10; [8]) of 24952.47. For the same molecule, the luminescent signals (OCI-LY10; [9]) was 23945.32, the luminescent signals (OCI-LY10; [10]) was 42647.18 and the luminescent signals (TMD8; [11]) was 47319.47. It also gave a luminescent signals (TMD8; [12]) of 11004.22, a luminescent signals (TMD8; [13]) of 9847.13 and a luminescent signals (TMD8; [14]) of 9773.329. It also gave a luminescent signals (TMD8; [15]) of 9272.538, a luminescent signals (TMD8; [16]) of 9472.854 and a luminescent signals (TMD8; [17]) of 9301.531. For the same molecule, the luminescent signals (TMD8; [18]) was 10927.78, the luminescent signals (TMD8; [19]) was 7055.879 and the luminescent signals (TMD8; [20]) was 11191.36. It also gave a luminescent signals (U-2932; [21]) of 55416.46, a luminescent signals (U-2932; [22]) of 53427.04 and a luminescent signals (U-2932; [23]) of 50299.31. The luminescent signals (U-2932; [24]) was 45013.52, the luminescent signals (U-2932; [25]) was 49095.12 and the luminescent signals (U-2932; [26]) was 44565.57. For the same molecule, the luminescent signals (U-2932; [27]) was 48570.75, the luminescent signals (U-2932; [28]) was 44022.77 and the luminescent signals (U-2932; [29]) was 33140.26. For the same molecule, the luminescent signals (U-2932; [30]) was 51182.03, the luminescent signals (SU-DHL-2; [31]) was 945.707 and the luminescent signals (SU-DHL-2; [32]) was 1016.636. The luminescent signals (SU-DHL-2; [33]) was 782.836 and the luminescent signals (SU-DHL-2; [34]) was 1087.564.
